According to PubChem BioAssay AID624119 (National Center for Advancing Translational Sciences (NCATS), 2012):

Target: Cytochrome P450 2D6 (Homo sapiens) (UniProt P10635)
Test: qHTS Assay for Inhibitors of Bacillus subtilis Sfp phosphopantetheinyl transferase (PPTase): CYP 2D6
Settings: CYP2D6 inhibition, single concentration 3 uM; at 3 µM; stronger effect = higher value
Text: The covalent attachment of a phosphopantetheinyl (4'-PP) arm to a variety of synthases and other proteins is a key posttranslational protein modification. The 4'-PP is installed on the proteins post-translationally from coenzyme A (CoA) on a conserved serine residue by action of phosphopantetheinyl transferase (PPTase) enzymes. Phosphopantetheinylation is essential for synthase activity, and removal of the PPTase gene precludes natural product synthesis in microorganisms, or in the case of fatty acid biosynthesis, renders the organism unviable. PPTase enzymes belong to a distinct structural superfamily. Within bacteria, these enzymes are grouped into two classes based upon primary structure, the AcpS-Type and Sfp-Type PPTases.
Sfp-type PPTases, corresponding to an activator of surfactin production in Bacillus subtilis, are responsible for modifying type I polyketide and nonribosomal peptide synthases of prokaryotes. Sfp-type PPTases are responsible for the activation of a variety of pathogen-associated virulence factors. Among these compounds are toxins such as mycolactone from Mycobacterium ulcerans, siderophores such as vibriobactin from Vibrio cholerae or mycobactin from Mycobacterium tuberculosis, as well as the mycolic acids which form the waxy cell wall of Mycobacteria. The biosyntheses of these natural products are considered attractive targets for drug design. […]

Chain of Cytochrome P450 2D6 (Homo sapiens) (P10635 whole entry, looked up): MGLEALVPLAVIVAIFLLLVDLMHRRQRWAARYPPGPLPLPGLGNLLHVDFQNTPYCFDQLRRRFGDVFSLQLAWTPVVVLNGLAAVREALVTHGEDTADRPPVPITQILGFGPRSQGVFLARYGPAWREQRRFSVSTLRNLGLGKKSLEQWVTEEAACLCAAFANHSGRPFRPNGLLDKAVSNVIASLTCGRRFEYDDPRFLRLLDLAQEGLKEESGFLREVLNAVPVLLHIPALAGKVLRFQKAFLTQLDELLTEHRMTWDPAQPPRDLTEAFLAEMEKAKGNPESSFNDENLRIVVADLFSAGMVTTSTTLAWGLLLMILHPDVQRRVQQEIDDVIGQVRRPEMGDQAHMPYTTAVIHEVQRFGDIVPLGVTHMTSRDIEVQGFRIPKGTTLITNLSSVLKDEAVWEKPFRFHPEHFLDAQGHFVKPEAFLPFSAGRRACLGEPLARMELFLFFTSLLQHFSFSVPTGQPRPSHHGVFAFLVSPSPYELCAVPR

inhibition: 25%
Compound: COc1ccnc(NC(=S)N2CCN(c3ncc(C(F)(F)F)cc3Cl)CC2)c1
